In ChEMBL document CHEMBL5576090, “Structural Diversification of Pyrazinone Metabolites via Spontaneous Oxa-Michael Addition in Staphylococcus xylosus” (2024):
Residues, ends and D or L forms follow the SMILES beside them. *: point of attachment. Boc = CC(C)(C)OC(=O)*

Columns and labels:
Assay type in all cases: functional
Acinetobacter baumannii = test: Antibacterial activity against Acinetobacter baumannii measured after 12 hrs
Escherichia coli = test: Antibacterial activity against Escherichia coli measured after 12 hrs
[1] = Antimigratory activity against mouse MTV/TM-011 cells assessed as wound closure measured after 24 hrs by optical microscopic analysis relative to control; design: concentration or dose not given beside the values
Staphylococcus aureus = test: Antibacterial activity against methicillin-resistant Staphylococcus aureus measured after 12 hrs
Saccharomyces cerevisiae = test: Antifungal activity against Saccharomyces cerevisiae measured after 24 hrs
Bacillus subtilis = test: Antibacterial activity against Bacillus subtilis measured after 12 hrs
[2] = Antimigratory activity against mouse MTV/TM-011 cells assessed as wound closure at 20 uM measured after 24 hrs by optical microscopic analysis relative to control

Row | SMILES | MIC (Acinetobacter baumannii) [µM] | MIC (Escherichia coli) [µM] | Activity [1] [%] | MIC (Staphylococcus aureus) [µM] | MIC (Saccharomyces cerevisiae) [µM] | MIC (Bacillus subtilis) [µM] | Activity [2] [%]
1 | COC(C)(C)c1ncc(Cc2ccc(O)cc2)[nH]c1=O | > 100 | > 100 | 65 | > 100 | > 100 | > 100 | 
2 | CC(C)c1ncc(Cc2ccccc2)nc1O | > 100 | > 100 | 72 | > 100 | > 100 | > 100 | 
3 | O=c1[nH]cc(F)c(=O)[nH]1 [FLUOROURACIL] |  |  | 65 |  |  |  | 
4 | COC(C)(C)c1ncc(Cc2ccccc2)[nH]c1=O | > 100 | > 100 | 65 | > 100 | > 100 | > 100 | 
5 | CC(C)(O)c1ncc(Cc2ccccc2)[nH]c1=O | > 100 | > 100 | 70 | > 100 | > 100 | > 100 | 
6 | CC(C)[C@H](NC(=O)OC(C)(C)C)C(=O)N[C@H](C=O)Cc1ccccc1 (Boc-Val-Phe-aldehyde) | > 100 | > 100 |  | > 100 | > 100 | > 100 | 65
7 | CC(C)Cc1cnc(C(C)C)c(=O)[nH]1 | > 100 | > 100 | 65 | > 100 | > 100 | > 100 | 
8 | CC(C)c1ncc(Cc2ccc(O)cc2)[nH]c1=O | > 100 | > 100 | 65 | > 100 | > 100 | > 100 | 
9 | CC(C)(O)c1ncc(Cc2ccc(O)cc2)[nH]c1=O | > 100 | > 100 | 65 | > 100 | > 100 | > 100 | 
